# Assay results published in ChEMBL document CHEMBL4804283, “Stk19 inhibitors for treatment of cancer” (2020).
# Activity calls are given as the source filed them. The calls are words filed in the database; no cut-off is given here.
# Legend:
# SK-MEL-2 [1] = test: Induction of apoptosis in human SK-MEL-2 cells expressing NRAS Q61R and wild-type BRAF at 1-3 uM relative to control; type: functional, cell-based
# A-375 = test: Induction of apoptosis in human A375 cells expressing wild-type NRAS and BRAF V600E mutant at 1-3 uM relative to control; type: functional, cell-based
# [2] = target: T1, Inactive serine/threonine-protein kinase 19 (Homo sapiens) (UniProt P49842); test: Inhibition of STK19 in human SK-MEL-2 cells expressing NRAS Q61R and wild-type BRAF at 100 nM assessed as H3K9 methylation relative to control; type: cell-based
# T1 sequence (whole entry): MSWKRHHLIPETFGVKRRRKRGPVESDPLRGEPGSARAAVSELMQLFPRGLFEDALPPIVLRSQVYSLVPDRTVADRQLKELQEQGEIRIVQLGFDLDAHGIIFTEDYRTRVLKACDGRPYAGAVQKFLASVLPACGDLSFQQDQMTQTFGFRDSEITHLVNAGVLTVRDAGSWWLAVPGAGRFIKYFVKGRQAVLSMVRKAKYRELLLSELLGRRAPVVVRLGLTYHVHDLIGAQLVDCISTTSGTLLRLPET
# [3] = Toxicity in C57BL/6J mouse assessed as effect on animal body weight at 25 mg/kg, administered twice daily for 20 days; type: organism-based; settings: in vivo, 480 h
# [4] = target: T1, Inactive serine/threonine-protein kinase 19 (Homo sapiens); test: Inhibition of STK19 in human SK-MEL-2 cells expressing NRAS Q61R and wild-type BRAF at 1-3 uM assessed as NRAS signaling relative to control; type: cell-based
# [5] = Toxicity in nude mouse xenografted with human SK-MEL-2 cells assessed as increase in animal survival at 25 mg/kg; type: organism-based; settings: in vivo
# [6] = target: T1, Inactive serine/threonine-protein kinase 19 (Homo sapiens); test: Inhibition of STK19 in human WM2032 cells expressing NRAS Q61R and wild-type BRAF at 100 nM assessed as NRAS phosphorylation relative to control; type: cell-based
# [7] = Toxicity in C57BL/6J mouse assessed as effect on alanine aminotransferase level at 25 mg/kg, administered twice daily for 20 days; type: organism-based; settings: in vivo, 480 h
# SK-MEL-2 [8] = test: Antitumor activity against human SK-MEL-2 cells xenografted in nude mouse assessed as inhibition of cancer cell proliferation at 25 mg/kg, administered for 21 days; type: functional, organism-based
# hTERT [9] = test: Inhibition of colony formation in hTERT/p53DD/CDK4 (R24C) immortal melanocytes expressing STK19 D89N mutant at 3 uM relative to control; type: functional; settings: Homo sapiens
# [10] = Toxicity in C57BL/6J mouse assessed as liver histology at 25 mg/kg, administered twice daily for 20 days by H and E staining method; type: organism-based; settings: in vivo, 480 h
# SK-MEL-2 [11] = test: Antitumor activity against human SK-MEL-2 cells xenografted in nude mouse assessed as inhibition of cancer cell proliferation at 50 mg/kg, administered for 21 days; type: functional, organism-based
# [12] = target: T1, Inactive serine/threonine-protein kinase 19 (Homo sapiens); test: Inhibition of STK19 in human WM2032 cells expressing NRAS Q61R and wild-type BRAF at 300 nM assessed as H3K9 methylation relative to control; type: cell-based
# [13] = target: T1, Inactive serine/threonine-protein kinase 19 (Homo sapiens); test: Inhibition of STK19 in human SK-MEL-2 cells expressing NRAS Q61R and wild-type BRAF at 300 nM assessed as NRAS phosphorylation relative to control; type: cell-based
# hTERT [14] = test: Antiproliferative activity against hTERT/p53DD/CDK4 (R24C) immortal melanocytes expressing wild-type STK19 at 3 uM relative to control; type: functional, tissue-based; settings: Homo sapiens
smiles,measurement,setting,value
COc1cc2nc(NC3CC3)nc(NC3CCN(C(C)C)CC3)c2cc1OC.O=C(O)C(F)(F)F,Activity,SK-MEL-2 [1],Active
same,Activity,A-375,inactive
same,inhibition,[2],inactive
same,Activity,[3],Non-Toxic
same,inhibition,[4],Active
same,Activity,[5],Non-Toxic
same,inhibition,[6],Active
same,Activity,[7],Non-Toxic
same,Activity,SK-MEL-2 [8],Active
same,Activity,hTERT [9],Active
same,Activity,[10],Non-Toxic
same,Activity,SK-MEL-2 [11],Active
same,inhibition,[12],inactive
same,inhibition,[13],Active
same,Activity,hTERT [14],Active
